One experiment relates to BaF3-TEL-AXL cells. As to the kind of experiment: BaF3-TEL-AXL cell proliferation assay (CCK-8). The experiment is classed as cell-based. Particulars: 72 hours, read-out: IC50 value on BaF3-TEL-AXL cell proliferation inhibition. The text has this:
1. BaF3-TEL-AXL Cell Proliferation Effect Assay
TEL-AXL fusion protein in BaF3-TEL-AXL cells was expressed in the cytoplasm and was an Axl-dependent sensitive cell line.
The inhibitory effect of the compound on the proliferation of BaF3-TEL-AXL cells was detected by the CCK-8 Cell Counting Kit (Dojindo). The specific steps were as follows: the BaF3-TEL-AXL cells in the logarithmic growth phase were inoculated into the 96-well culture plate at a appropriate density, after being cultured overnight, different concentrations of compounds were added for 72 hours, and a solvent control group (negative control) was set. After the compound had acted on the cells for 72 hours, the effect of the compound on cell proliferation was detected by CCK-8 cell counting kit (Dojindo), 10 μL CCK-8 reagent was added to each well, placed in an incubator at 37° C. for 2-4 hours, and the full wavelength microplate reader SpectraMax 190 was used to read, and the measurement wavelength was 450 nm.
The inhibition rate of the compound on the growth of tumor cells was calculated by the following formula (%): Inhibition rate (%)=(OD of control well−OD of administration well)/OD of control well×100%

The next experiment has as its system MKN45 cells. As to the kind of experiment: MKN45 cell proliferation assay (SRB). The settings on record: Homo sapiens, MKN-45, 72 hours, read-out: IC50 value of MKN45 cell proliferation inhibition. The format is cell-based. From the text:
2. MKN45 Cell Proliferation Effect Assay
MKN45 is a gastric cancer cell line. MET gene amplification leads to continuous activation of Met cell line, which is a c-Met-dependent tumor cell line.
The inhibitory effect of the compound on the proliferation of MKN45 cells was detected by sulforhodamine B (SRB) protein staining method. The specific steps were as follows: MKN45 cells in the logarithmic growth phase are inoculated into a 96-well culture plate at an appropriate density. After being cultured overnight, compounds of different concentrations were added for 72 hours. Three duplicate wells for each concentration, and a solvent control group (Negative control) were set. After the action was over, the culture solution was discarded, 10% (w/v) trichloroacetic acid (100 μL/well) was added, and fixed at 4° C. for 1 hour, then washed with distilled water for five times. After drying at room temperature, 100 μL of SRB solution was added to each well, incubated and dyed at room temperature for 15 min, washed off the unbound SRB with 1% glacial acetic acid. After drying at room temperature, 10 mM Tris solution was added to each well, and full wavelength microplate SpectraMax 190 was used to test OD value at the wavelength of 515 nm. […]

For experiment [1], the target named is T1, Axl kinase domain recombinant protein (Homo sapiens, UniProt P30530).
T1 sequence (P30530 536-807 limits assumed): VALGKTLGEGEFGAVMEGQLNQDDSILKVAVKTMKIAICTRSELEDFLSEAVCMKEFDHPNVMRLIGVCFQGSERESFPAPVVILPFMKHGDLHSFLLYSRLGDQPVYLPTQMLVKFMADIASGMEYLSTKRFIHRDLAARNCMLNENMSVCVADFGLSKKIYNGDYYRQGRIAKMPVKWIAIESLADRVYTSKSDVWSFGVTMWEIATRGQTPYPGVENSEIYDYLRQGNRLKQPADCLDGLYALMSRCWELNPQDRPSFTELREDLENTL
As to the kind of experiment: ELISA kinase activity assay, Axl.

The target of experiment [2] is c-Met kinase domain recombinant protein (Homo sapiens, UniProt P08581). The experiment can be described thus: ELISA kinase activity assay, c-Met. Background: ELISA stands for enzyme-linked immunosorbent assay.

Five compounds from patent US12479850B2, “Compound having Axl and c-Met kinase inhibitory activity, preparation thereof and application thereof” (Shanghai Institute of Materia Medica, Chinese Academy of …, priority 2019, dated 2025) can be followed below.

Where only a bound is given, the exact number is not on record here.

Chain of c-Met kinase domain recombinant protein (P08581 1078-1345 limits assumed): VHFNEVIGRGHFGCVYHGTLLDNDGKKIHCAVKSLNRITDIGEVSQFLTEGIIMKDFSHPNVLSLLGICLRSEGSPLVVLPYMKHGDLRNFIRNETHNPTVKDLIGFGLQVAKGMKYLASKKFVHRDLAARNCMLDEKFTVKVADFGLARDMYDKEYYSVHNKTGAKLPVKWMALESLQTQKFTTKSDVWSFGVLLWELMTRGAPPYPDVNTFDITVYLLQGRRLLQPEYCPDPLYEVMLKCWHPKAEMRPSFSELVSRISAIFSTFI

As to `CC(C)n1cc(C(=O)Nc2ccc(Oc3cc4cnn(C)c4cc3-c3cn[nH]c3)c(F)c2)c(=O)n(-c2ccc(F)cc2)c1=O` [No. 50, N-(3-fluoro-4-((1-methyl-6-(1H-pyrazol-4-yl)-1H-indazol-5-yl)oxy)phenyl)-3-(4-fluorophenyl)-1-isopropyl-2,4-dioxo-1,2,3,4-tetrahydropyrimidin-5-carboxamide], the IC50 in the experiment on BaF3-TEL-AXL cells is under 10 nM; with MKN45 cells it was under 100 nM; in experiment [1], under 10 nM; in experiment [2], 10 to 100 nM.

As to `CC(C)n1cc(C(=O)Nc2ccc(Oc3ccnc4[nH]ccc34)c(F)c2)c(=O)n(-c2ccc(F)cc2)c1=O` [No. 41, N-(4-((1H-pyrrolo[2,3-b]pyridin-4-yl)oxy)-3-fluorophenyl)-3-(4-fluorophenyl)-1-isopropyl-2,4-dioxo-1,2,3,4-tetrahydropyrimidin-5-carboxamide], the IC50 in the experiment on BaF3-TEL-AXL cells was under 10 nM; in the experiment with MKN45 cells it was under 100 nM; in experiment [1], under 10 nM; in experiment [2] it was under 10 nM.

As for `CCn1cc(C(=O)Nc2ccc(Oc3ccnc(-c4cnn(C)c4)c3)c(F)c2)c(=O)n(-c2ccc(F)cc2)c1=O` [No. 2, 1-ethyl-N-(3-fluoro-4-((2-(1-methyl-1H-pyrazol-4-yl)pyridin-4-yl)oxy)phenyl)-3-(4-fluorophenyl)-2,4-dioxo-1,2,3,4-tetrahydropyrimidin-5-formamide], the IC50 in experiment [1] and in experiment [2] was under 10 nM throughout.

Regarding `CC(C)n1cc(C(=O)Nc2ccc(Oc3ccnc(-c4cnn(C)c4)c3)c(F)c2)c(=O)n(-c2ccccc2)c1=O` [No. 13, N-(3-fluoro-4-((2-(1-methyl-1H-pyrazol-4-yl)pyridin-4-yl)oxy)phenyl)-1-isopropyl-2,4-dioxo-3-phenyl-1,2,3,4-tetrahydropyrimidin-5-carboxamide], the IC50 in experiment [1] and in experiment [2] was 10 to 100 nM in each case.

For `CC(C)n1cc(C(=O)Nc2ccc(-c3cc(-c4cn[nH]c4)cnc3N)c(F)c2)c(=O)n(-c2ccc(F)cc2)c1=O` [No. 40, N-(4-(2-amino-5-(1H-pyrazol-4-yl)pyridin-3-yl)-3-fluorophenyl)-3-(4-fluorophenyl)-1-isopropyl-2,4-dioxo-1,2,3,4-tetrahydropyrimidin-5-carboxamide], the IC50 in experiment [1] and in experiment [2] was over 100 nM each time.
